Patent US20130295179A1, “NOVEL OMEGA-3 AND OMEGA-6 FATTY ACID COMPOSITIONS AND USES THEREOF” (priority 2010, published 2013)
“And” between values parts separate entries of the source, which are not always exact repeats. Equal values may be shown once.

Key:
Format in all cases: in vivo, human
[1] = system: Newly diagnosed ADHD children; assay: RCT of omega-3/6 alone or in combination with methylphenidate, one year follow-up (Example 6); details: evaluated by the parents
Description: Newly diagnosed ADHD children of both genders, 6 to 12 years old, were included in a RCT with one year follow-up in a 3-arm design (A: Omega-3/6; B: Omega 3/6+MTP; and C: MTP). The omega-3/6 fatty acid dosage used was EPA/DHA/GLA (9:3:1) in a total of 792 mg/day (Equazen™). MTP was prescribed in a dosage of 1 mg/kg/day (titration).
The ADHD diagnosis and follow up were made using the Diagnostic and Statistical Manual of Mental Disorders fourth edition (DSM-IV) scale, the ADHD Rating Scale Spanish version (ADHD-RS-VE), and the CEAL (Latin-American scale for ADHD) and overall clinical impression (CGI). For clinically meaningful response, a reduction of at least 25% of the symptoms was used. The adverse events (AE) were evaluated by the parents based on the impact on the patients.

[2] = system: children between 6 and 12 years of age with a newly diagnosed ADHD; assay: ADHD Rating Scale Spanish version (parent ADHD-RS-SV), randomized pilot trial (Example 7)
Description: (§1) The trial was performed at the Neurology Department of the Hospital Infantil de México Federico Gomez (Health National Institute for children's in Mexico) as a randomized pilot trial. Three treatment groups were compared: group A: MTP; group B: Omega 3/6; group C: MTP+Omega 3/6. Subjects were randomized to one of these groups after screening. After inclusion to the trial, the subjects underwent three different trial periods: the 4 weeks titration period (only for the group A and group C in relation to the MTP), the 12 months evaluation period and the 6 months follow up period (FIG. 1)
(§2) A total of 107 children between 6 and 12 years of age with a newly diagnosed ADHD entered the screening phase of the trial. The presence of any previous ADHD treatment was an exclusion criterion. 17 children were screening failures and could not be included to the trial. After written informed consent by the parents or tutors of the children, a total of 90 patients were distributed to the three groups following a randomization to the three groups against a set of arbitrary numbers.
Inclusion criteria: Patients from 6 to 12 years old, diagnosed as having attention-deficit hyperactivity disorder by the DSM-IV, agreement to take part in the survey (letter of informed consent signed by the parent or tutor and letter of acknowledgement). Exclusion criteria: any Axis I psychiatric diagnosis other than ADHD except oppositional defiant behaviour disorder, neurological deficit, seizures or tics; previous treatment of suitable doses of methylphenidate; patients with known hypersensitivity to omega-3.
(§3) The omega-3/omega6 fatty acid supplement was used. The daily dosage of this omega 3/6 was of three capsules twice daily, corresponding to a daily dose of 558 mg EPA, 174 mg DHA and 60 mg gamma-linolenic. This specific product was chosen because it was the product and the daily dosage used in three previous clinical studies showing significant positive improvements on ADHD related symptoms without showing significant adverse events.
(§4) The stimulant used in this trial was short or long acting methylphenidate (hereafter termed MTP). The daily dose was calculated to start at a concentration of 0.5 mg/kg/day to reach a maximum of 1 mg/kg/day depending on the response and the tolerance. The doses were adjusted weekly.
(§5) Clinical assessments were made at four time points: at baseline, after 3 months, after 6 months and after 12 months. The study consisted in six stages with a total of 12 visits including the screening visit (screening visit 0) and the period of selection and titration of the medication in the case of the group A & C (first 4 weeks). At baseline all the included patients were newly diagnosed with ADHD being drug-naïve (no previous treatment with omega 3/6, MTP or atomoxetine was permitted). ADHD diagnosis was made for patients who met DMS-IV criteria of any subtype and by using the ADHD-RS-VE (Spanish version) and the CEAL (Latin American scale for ADHD). The presence of any associated condition (comorbidity) was assessed by clinical interview according to DSM-IV criteria. The investigator made a medical evaluation, including weight, height, cephalic perimeter, neurological evaluation, sleep patrons and other comorbidities. A questionnaire for the symptoms of fatty acids deficiency was applied, where 0 means without symptoms and 3 with a high degree of symptoms. We analyzed blood samples for biometry hematic and hepatic function.
(§6) For clinically meaningful response, definition of clinical trials with ADHD medications was used, that is: a reduction of at least 25% of the symptoms scores on the ADHD-RS scale. The other important variable was the permanence time in the study measuring efficacy and tolerability. The overall clinical impression of symptom severity and functional impairment was measured with the CGI severity scale, which is a clinician rating of the patient's symptom severity related to the clinician's total experience with ADHD patients. […]

[3] = system: children between 6 and 12 years of age with a newly diagnosed ADHD; assay: Side effects / adverse events, randomized pilot trial (Example 7)
Description: as §1, §2, §3, §4
The patients was evaluated at baseline including a physical examination, including height and weight, pulse and blood pressure, a neuromotor examination and assessment of the general level of functioning with CGI. We evaluated each week for the first four weeks and each month for a year. The adverse events (AE) were evaluated at any clinic event appointed by the parents and with an impact over the patients, independently if it was associated or not with the medication. This includes exacerbation of the preexistence symptoms. It was important to note the moment of these AE.

[4] = system: children between 6 and 12 years of age with a newly diagnosed ADHD; assay: Continuity in the study, withdrawals and MTP dose needed, randomized pilot trial (Example 7); details: 12 months, n = 30 per group
Description: as §1, with “1) […]” for “1)”
The stimulant used in this trial was short or long acting methylphenidate (hereafter termed MTP). The daily dose was calculated to start at a concentration of 0.5 mg/kg/day to reach a maximum of 1 mg/kg/day depending on the response and the tolerance. […]
as §6, with “The other important variable was the permanence time in the study measuring efficacy and tolerability.” left out

[5] = system: children between 6 and 12 years of age with a newly diagnosed ADHD; assay: Clinical Global Impression (CGI) severity, randomized pilot trial (Example 7)
Description: as §1, §2, §3, §4, §5, §6

[6] = in % of the subjects, n = 30 per group

## COC(=O)C(c1ccccc1)C1CCCCN1 (stereo not drawn) [MTP, methylphenidate]
[1]
  most frequent AE: weight reduction, hyporexia, and anxiety
[2]; after one month treatment
  ADHD RS total score after one month: 27.6±4.97
[2]; comparison of the three treatments
  response of the hyperactivity symptom: greater impact
[2]; mean, after 3 months
  ADHD RS, total score, After 3 months: 25.29 ± 4.18
  Hyperactive/impulsive subscale, After 3 months: 13.25±3.05
  Inattentive subscale, After 3 months: 12.04±1.78
[2]; mean, after 12 months
  ADHD RS, total score, After 12 months: 23.55 ± 1.72
  Hyperactive/impulsive subscale, After 12 months: 12.1±1.29
  Inattentive subscale, After 12 months: 11.45±1.32
[2]; mean, baseline
  ADHD RS, total score, Baseline: 41.43±4.32 and 41.43 ± 4.39
  Hyperactive/impulsive subscale, Baseline: 19.93±5.11
  Inattentive subscale, Baseline: 21.47±3.20
[3]; [6]
  Headache: 23.3%
  Hiporexia: 53.3%
  Irritability: 16.7%
  Pallor: 16.7%
  Palpitation: 13.3%
  Seasickness: 1.0%
  Sleeplessness: 6.7%
  Tension: 16.7%
  Tics: 6.7%
  Tremor: 1.0%
[3]; of 30 per group
  hyporexia, number of patients: 16 patients
[4]
  patients who left the study because of side effects: 6 patients
  patients who withdrew for lack of efficacy: 2 patients
[5]; from marked/severe before the treatment
  CGI severity category reached after treatment: mild/moderate
[5]; scale 1 (normal) to 7, baseline mean
  investigator rated CGI, baseline: 6.30±0.65
[5]; scale 1 to 7, 1 month
  investigator rated CGI, first treatment month: 3.67±1.21
[5]; scale 1 to 7, 3 months
  investigator rated CGI severity at 3 months: 4.42±1.02
[5]; scale 1 to 7, 6 months
  investigator rated CGI severity at 6 months: 3.75±0.44 and 3.90±0.45
